From patent publication US7538241B2, “Hsp90 family protein inhibitors” (Kyowa Hakko Kogyo Co., Ltd., priority 2003, dated 2009)

What was measured:
[1] = tested on: human mammary cancer-derived KPL-4 cells; test: Cell growth inhibition test with KPL-4 cells (WST-1); assay type: cell-based; conditions: KPL4, 72 hours, read-out: 50% growth inhibition concentration (GI50)
Method in brief: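 Growth inhibition from WST-1 absorbance difference (450 minus 655 nm) after 1 h, relative to untreated control as 100%, giving GI50. KPL-4 cells had 24 h pre-culture in DMEM/10% FCS before 72 h compound exposure at 37 °C under 5% CO2.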

[2] = tested on: human multiple myeloma-derived KMS-11 cells; test: Cell growth inhibition test with KMS-11 cells (WST-1); assay type: cell-based; conditions: 72 hours, read-out: 50% growth inhibition concentration (GI50)
Protocol: In a 96-well plate (Nunc), human multiple myeloma-derived KMS-11 cells were sown in an amount of 4000 cells/well, and pre-incubated in 10% FCS-containing RPMI 1640 (Nissui) (incubation medium) in a 5% carbon dioxide incubator at 37° C. for 24 hours. Next, a DMSO solution of a test compound controlled at 10 mmol/L was stepwise diluted with the incubation medium, and added to each well in a total amount of 100 μL/well, and further incubated in the 5% carbon dioxide incubator at 37° C. for 72 hours. After the incubation, WST-1-labeled mixture (Rosh Diagnostic) diluted 2-fold with the incubation medium was added thereto in an amount of 20 μL/well, and incubated in the 5% carbon dioxide incubator at 37° C. for 2 hours. Using a microplate spectrophotometer (Biorad's Model 550), the absorbance at 450 nm and 655 nm of each well was measured. The cell growth inhibition activity of the test compound was indicated by the 50% growth inhibition concentration (GI50) thereof, like in Test Example 2.

[3] = tested on: human chronic myelocytic leukemia-derived K562 cells; test: Cell growth inhibition test with K562 cells (WST-1); assay type: cell-based; conditions: 72 hours, read-out: 50% growth inhibition concentration (GI50)
Method in brief: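 K562 cells at 1500 cells/well in 10% FCS RPMI 1640, pre-incubated 5 h, then exposed to serially diluted compound for 72 h at 37° C, 5% CO2. Viability read by WST-1 after 2 h (absorbance 450/655 nm); GI50 reported.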

[4] = tested on: FGFR3 (fibroblast growth factor receptor 3); test: Deletion of protein encoded by immunoglobulin gene-translocated partner gene in KMS-11 cells (Western blotting); assay type: cell-based, human; conditions: 10 μmol/L and 1.0 μmol/L, 24 hours, FIG. 1
Protocol: (§1) Human multiple myeloma-derived KMS-11 cells [In Vitro Cell. Dev. Biol., 25, 723 (1989)], which had been diluted with a 10% fetal calf serum-containing RPMI 1640 (incubation medium) to 100,000 cellImL, were put in a 6-well plastic plate for cell incubation (Nunc), in an amount of 3 mL/well. It is reported that the KMS-11 cells express a large quantity of FGFR3 (fibroblast growth factor receptor 3) as a result of translocation between the immunoglobulin gene in 14q32 and the FGFR3 gene in 4p16.3 [Blood 90, 4062 (1997)]. […]
(§2) To the thus-collected cells, added was a cooled cytolysis buffer (50 mmol/L HEPES NaOH, pH 7.4, 250 mmol/L sodium chloride, 1 mmol/L ethylenediamine-tetraacetic acid, 1% Nonidet P-40, 1 mmol/L dithiothreitol, 1 mmol/L phenylmethylsulfonyl fluoride, 5 μg/mL leupeptin), and kept at 4° C. for 30 minutes for cytolysis. […] The protein concentration in the resulting supernatant was measured, and samples were prepared so as to have the same protein amount for each lane, and these were subjected to SDS (sodium dodecylsulfate)-polyacrylamide gel electrophoresis for protein separation.
(§3) Thus separated, the protein sample was transferred onto a polyvinylidene difluoride membrane (Millipore). […] After further reaction with an ECL reagent (Amersham Biosciences), the protein bands were detected on an X-ray film. […]

Erk2 = test: Western blotting of non-Hsp90 client protein in KMS-11 cells; assay type: cell-based, human; conditions: 10 μmol/L and 1.0 μmol/L, 24 hours, FIG. 1
Protocol: as §1, §2, §3

Structure (SMILES) | GI50 [1] | GI50 [2] | GI50 [3] | deletion of FGFR3 encoded by the immunoglobulin gene-translocated partner gene [4] | protein amount of Erk2 (non-Hsp90 client protein) (Erk2)
COCCc1c(C(C)=O)c(O)cc(O)c1-c1cccc(O)c1 [Compound 134, 1-[2,4-Dihydroxy-5-(3-hydroxyphenyl)-6-(2-methoxyethyl)phenyl]ethanone] | ≤ 50 µM | ≤ 50 µM | ≤ 50 µM |  | 
CCc1c(O)cc(O)c(-c2cccc(OC)c2)c1CCOCCOC [Compound 138, 6-Ethyl-5-[2-(2-methoxyethoxy)ethyl]-4-(3-methoxyphenyl)benzene-1,3-diol] | ≤ 50 µM | ≤ 50 µM | ≤ 50 µM |  | 
COCCOCCc1c(C(C)=O)c(O)cc(O)c1-c1cccc(C)c1 [Compound 139, 1-{2,4-dihydroxy-6-[2-(2-methoxyethoxy)ethyl]-5-(3-methylphenyl)phenyl}ethanone] | ≤ 50 µM | ≤ 50 µM | ≤ 50 µM |  | 
CCc1c(O)cc(O)c(-c2ccccc2)c1CCOCC(O)CO (centres unmarked) [Compound 147, 5-[2-(2,3-Dihydroxypropoxy)ethyl]-6-ethyl-4-phenylbenzene-1,3-diol] | ≤ 50 µM | ≤ 50 µM | ≤ 50 µM |  | 
CCc1c(O)cc(O)c(-c2ccccc2)c1CCCOCC(=O)NC [Compound 159, 2-[3-(2-Ethyl-3,5-dihydroxy-6-phenylphenyl)propoxy]-N-methylacetamide] | ≤ 50 µM | ≤ 50 µM | ≤ 50 µM |  | 
CCc1c(O)cc(O)c(-c2cccc(O)c2)c1CCOCCOC [Compound 166, 6-Ethyl-4-(3-hydroxyphenyl)-5-[2-(2-methoxyethoxy)ethyl]benzene-1,3-diol] | ≤ 50 µM | ≤ 50 µM | ≤ 50 µM |  | 
CCc1c(O)cc(O)c(-c2cccc(O)c2)c1CCOCCO [Compound 174, 6-Ethyl-5-[2-(2-hydroxyethoxy)ethyl]-4-(3-hydroxyphenyl)benzene-1,3-diol] | ≤ 50 µM | ≤ 50 µM | ≤ 50 µM |  | 
CCc1c(O)cc(O)c(-c2ccccc2)c1CCc1ocnc1C(=O)O [Compound 209, 5-[2-(2-Ethyl-3,5-dihydroxy-6-phenylphenyl)ethyl]-1,3-oxazole-4-carboxylic acid] |  | ≤ 50 µM | ≤ 50 µM | deletion of FGFR3 | no change
CCc1c(O)cc(O)c(-c2ccccc2)c1CC1O[C@H](CO)[C@@H](CO)O1 [Compound 218, 5-{[(4R,5R)-4,5-bis(hydroxymethyl)-1,3-dioxolan-2-yl]methyl}-6-ethyl-4-phenylbenzene-1,3-diol] |  | ≤ 50 µM | ≤ 50 µM | deletion of FGFR3 | no change
COC(=O)Cc1c(Br)c(O)cc(O)c1-c1ccco1 [Compound 238, Methyl 2-bromo-6-(furan-2-yl)-3,5-dihydroxyphenylacetate] | ≤ 50 µM | ≤ 50 µM | ≤ 50 µM |  | 
COC(=O)Cc1c(Br)c(O)cc(O)c1-c1ccc(CCC(C)=O)o1 [Compound 265, Methyl 2-bromo-3,5-dihydroxy-6-[5-(3-oxobutyl)furan-2-yl]phenylacetate] | ≤ 50 µM | ≤ 50 µM | ≤ 50 µM |  | 
